Data taken from US20220042033A1, “COMPOSITION AND METHOD FOR CONFERRING AND/OR ENHANCING TOLERANCE AGAINST HERBICIDES BY USING VARIANTS OF PPO” (FarmHannong Co., Ltd., priority 2017, published 2022).

Columns and labels:
Format in all cases: cell-based
[1] = test system: E. coli BT3(ΔPPO) transformed with Auxenochlorella protothecoides ApPPO1 (SEQ ID NO: 1) variant Y422C (YC); assay: Herbicide tolerance test in PPO-deficient E. coli BT3(ΔPPO), growth on plates; details: Table 7, light, 37° C., 16 to 20 hours, vs wild type at highest herbicide concentration
Description: (§2) The mutated CyPPO gene obtained from the Example 2 was transformed to BT3 (ΔPPO) strain which is deficient of PPO activity and cultured in LB media with PPO-inhibiting herbicide, thereby examining whether growth of transformed BT3 was not inhibited.
(§3) BT3 competent cells were transformed with the pET303-ApPPO1 and pET303-MxPPO plasmids and those with a mutation(s) constructed in Example 2 respectively, and were cultured in LB agar media containing carbenicillin (Gold Biotechnology, Co., Ltd.).
(§4) Single colony of E. coli transformed with each CyPPO gene was cultured in 3 ml of LB broth containing carbenicillin overnight, and then was subcultured until absorbance (OD600) reached 0.5 to 1. Then, it was diluted with LB broth to OD600=0.5. Again, the diluted solution was serially diluted 4 times by a factor of one tenth.
(§5) The LB agar media (LB 25 g/l, Bacto agar 15 g/l) containing carbenicillin (100 μg/ml) and 0 to 4,000 μM of various herbicides dissolved in DMSO was prepared. Next, 10 μl of each diluted solution was dropped on the plate and cultured at 37° C. under light (Tables 7, 9 and 10, FIGS. 2 to 6, 13 to 20) or dark (Tables 8 and 11, FIGS. 7 to 12, 21 to 24) for 16 to 20 hours. Then, the extent of tolerance was evaluated.
(§6) The extent of herbicide tolerance of the ApPPO1 or MxPPO mutated genes was evaluated by comparing that of mutated genes with that of ApPPO1 or MxPPO wild type. The relative tolerance was represented with “+” as a factor of 10 times.
(§7) In Tables 7 to 11, tolerance level was presented as ‘−’ of tolerance of wild type and of variants equivalent to that of wild type, and was done as ‘+’ per each 10 fold resistance until ‘+++++’ as maximal resistance. […] A dilution series (OD600=0.5, 0.05, 0.005, 0.0005, 0.00005) was made and spotted on LB agar plates supplemented with herbicides.

[2] = test system: E. coli BT3(ΔPPO) transformed with Auxenochlorella protothecoides ApPPO1 (SEQ ID NO: 1) variant Y422I (YI); details: Table 7, light, 37° C., 16 to 20 hours, vs wild type at highest herbicide concentration
Description: as §2, §3, §4, §5, §6, §7

[3] = test system: E. coli BT3(ΔPPO) transformed with Auxenochlorella protothecoides ApPPO1 wild type, SEQ ID NO: 1; assay: Herbicide tolerance test in PPO-deficient E. coli BT3(ΔPPO), growth on plates; details: ApPPO1 WT, Table 7; light, 37° C., 16 to 20 hours; vs wild type at highest herbicide concentration
Description: (§1) Then, the extent of tolerance was evaluated.

[4] = test system: E. coli BT3(ΔPPO) transformed with Auxenochlorella protothecoides ApPPO1 (SEQ ID NO: 1) variant A215L (AL); assay: as above; details: Table 7, light, 37° C., 16 to 20 hours, vs wild type at highest herbicide concentration
Description: as §2, §3, §4, §5, §6, §7

[5] = test system: E. coli BT3(ΔPPO) transformed with Auxenochlorella protothecoides ApPPO1 (SEQ ID NO: 1) variant V360M (VM); assay: as above; details: Table 7, light, 37° C., 16 to 20 hours, vs wild type at highest herbicide concentration
Description: as §2, §3, §4, §5, §6, §7

[6] = test system: E. coli BT3(ΔPPO) transformed with Auxenochlorella protothecoides ApPPO1 (SEQ ID NO: 1) variant A215C (AC); assay: as above; details: Table 7, light, 37° C., 16 to 20 hours, vs wild type at highest herbicide concentration
Description: as §2, §3, §4, §5, §6, §7

[7] = test system: E. coli BT3(ΔPPO) transformed with Myxococcus xanthus MxPPO (SEQ ID NO: 3) variant A170C; assay: as above; details: Table 9, light, tiafenacil to 2000 μM, saflufenacil to 200 μM, flumioxazin to 100 μM
[8] = test system: E. coli BT3(ΔPPO) transformed with Myxococcus xanthus MxPPO wild type, SEQ ID NO: 3; assay: as above; details: MxPPO WT, Table 9; light; tiafenacil to 2000 μM, saflufenacil to 200 μM, flumioxazin to 100 μM
Description: as §1

[9] = test system: E. coli BT3(ΔPPO) transformed with Myxococcus xanthus MxPPO (SEQ ID NO: 3) variant M365I; assay: as above; details: Table 9, light, tiafenacil to 2000 μM, saflufenacil to 200 μM, flumioxazin to 100 μM
Description: as §2, §3, §4, §5
(§8) The extent of herbicide tolerance of the ApPPO1 or MxPPO mutated genes was evaluated by comparing that of mutated genes with that of ApPPO1 or MxPPO wild type. […]

[10] = test system: E. coli BT3(ΔPPO) transformed with Myxococcus xanthus MxPPO (SEQ ID NO: 3) variant A170L; assay: as above; details: Table 9, light, tiafenacil to 2000 μM, saflufenacil to 200 μM, flumioxazin to 100 μM
Description: as §2, §3, §4, §5, §8

[11] = test system: E. coli BT3(ΔPPO) transformed with Auxenochlorella protothecoides ApPPO1 (SEQ ID NO: 1) variant Y422M (YM); assay: as above; details: Table 7, light, 37° C., 16 to 20 hours, vs wild type at highest herbicide concentration
Description: as §2, §3, §4, §5, §6, §7

[12] = test system: E. coli BT3(ΔPPO) transformed with Auxenochlorella protothecoides ApPPO1 (SEQ ID NO: 1) variant Y422L (YL); assay: as above; details: Table 7, light, 37° C., 16 to 20 hours, vs wild type at highest herbicide concentration
Description: as §2, §3, §4, §5, §6, §7

[13] = test system: E. coli BT3(ΔPPO) transformed with Myxococcus xanthus MxPPO (SEQ ID NO: 3) variant M365L; assay: as above; details: Table 9, light, tiafenacil to 2000 μM, saflufenacil to 200 μM, flumioxazin to 100 μM
Description: as §2, §3, §4, §5, §8

[14] = test system: E. coli BT3(ΔPPO) transformed with Auxenochlorella protothecoides ApPPO1 (SEQ ID NO: 1) variant Y422T (YT); assay: as above; details: Table 7, light, 37° C., 16 to 20 hours, vs wild type at highest herbicide concentration
Description: as §2, §3, §4, §5, §6, §7

[15] = test system: E. coli BT3(ΔPPO) transformed with Myxococcus xanthus MxPPO (SEQ ID NO: 3) variant M365V; assay: as above; details: Table 9, light, tiafenacil to 2000 μM, saflufenacil to 200 μM, flumioxazin to 100 μM
Description: as §2, §3, §4, §5, §8

[16] = test system: E. coli BT3(ΔPPO) transformed with Myxococcus xanthus MxPPO (SEQ ID NO: 3) variant I311M; assay: as above; details: Table 9, light, tiafenacil to 2000 μM, saflufenacil to 200 μM, flumioxazin to 100 μM
Description: as §2, §3, §4, §5, §8

Structure (SMILES) | relative herbicide tolerance level [1] | relative herbicide tolerance level [2] | relative herbicide tolerance level [3] | relative herbicide tolerance level [4] | relative herbicide tolerance level [5] | relative herbicide tolerance level [6] | relative herbicide tolerance level [7] | relative herbicide tolerance level [8] | relative herbicide tolerance level [9] | relative herbicide tolerance level [10] | relative herbicide tolerance level [11] | relative herbicide tolerance level [12] | relative herbicide tolerance level [13] | relative herbicide tolerance level [14] | relative herbicide tolerance level [15] | relative herbicide tolerance level [16]
CCOC(=O)COc1cc(-c2nn(C)c(OC(F)F)c2Cl)c(F)cc1Cl [pyraflufenethyl, pyraflufen-ethyl] | +++ (100-999 fold higher tolerance) | ++ (10-99 fold higher tolerance) | − | +++ (100-999 fold higher tolerance) |  |  |  |  |  |  |  |  |  |  |  | 
CC(C)=C1OC(=O)N(c2cc(OC3CCCC3)c(Cl)cc2F)C1=O [pentoxazone] | +++ (100-999 fold higher tolerance) | ++ (10-99 fold higher tolerance) | − |  | + (1-9 fold higher tolerance) | + (1-9 fold higher tolerance) |  |  |  |  |  |  |  |  |  | 
CC(C)N(C)S(=O)(=O)NC(=O)c1cc(-n2c(=O)cc(C(F)(F)F)n(C)c2=O)c(F)cc1Cl [saflufenacil] | +++ (100-999 fold higher tolerance) | +++++ (more than 10,000 fold higher tolerance) | − | ++++ (1,000-9,999 fold higher tolerance) | +++ (100-999 fold higher tolerance) | + (1-9 fold higher tolerance) | +++ (100-999 fold higher tolerance) | − | ++ (10-99 fold higher tolerance) | ++ (10-99 fold higher tolerance) | +++++ (more than 10,000 fold higher tolerance) | ++++ (1,000-9,999 fold higher tolerance) | ++ (10-99 fold higher tolerance) | ++++ (1,000-9,999 fold higher tolerance) | +++ (100-999 fold higher tolerance) | ++ (10-99 fold higher tolerance)
C#CCN(C)c1c(C#N)cnn1-c1nn2c(c1Cl)CCCC2 [pyraclonil] | ++ (10-99 fold higher tolerance) | + (1-9 fold higher tolerance) | − | ++ (10-99 fold higher tolerance) | + (1-9 fold higher tolerance) | + (1-9 fold higher tolerance) |  |  |  |  | ++ (10-99 fold higher tolerance) | ++ (10-99 fold higher tolerance) |  | + (1-9 fold higher tolerance) |  | 
O=C(O)c1cc(Oc2ccc(C(F)(F)F)cc2Cl)ccc1[N+](=O)[O-] [acifluorfen] | ++ (10-99 fold higher tolerance) | + (1-9 fold higher tolerance) | − | +++ (100-999 fold higher tolerance) | ++ (10-99 fold higher tolerance) | ++ (10-99 fold higher tolerance) |  |  |  |  | ++ (10-99 fold higher tolerance) | ++ (10-99 fold higher tolerance) |  | + (1-9 fold higher tolerance) |  | 
CS(=O)(=O)NC(=O)c1cc(Oc2ccc(C(F)(F)F)cc2Cl)ccc1[N+](=O)[O-] [Fomesafen, fomesafen] | ++ (10-99 fold higher tolerance) | + (1-9 fold higher tolerance) | − | +++ (100-999 fold higher tolerance) | + (1-9 fold higher tolerance) | + (1-9 fold higher tolerance) |  |  |  |  | + (1-9 fold higher tolerance) | + (1-9 fold higher tolerance) |  | + (1-9 fold higher tolerance) |  | 
